# Data reported in patent US11786481B2, “Formulation and process for modulating wound healing” (BioMendics, LLC, priority 2015, dated 2023).
# What was measured:
# [1] = tested on: full thickness excision wounds; experiment: In vivo evaluation for wound healing: full thickness excision wounds on the dorsum of mice
# Excerpt: Example 10: In Vivo Evaluation of the LCB's for Wound Healing: Twenty, 5-6 week old Balbc/J (stock #000651) male mice were transferred to Jackson Labs in vivo research laboratory in Sacramento, Calif. The mice were ear notched for identification and housed in individually and positively ventilated polycarbonate cages with HEPA filtered air. Bed-o-cob corn cob bedding was used and cages were changed every two weeks. The animal room is lighted entirely with artificial fluorescent lighting, with a controlled 12 h light/dark cycle. The normal temperature and relative humidity ranges in the animal rooms are 22 t 4° C. and 50 t 15%, respectively. The animal rooms were set to have 15 air exchanges per hour. Filtered tap water, acidified to a pH of 2.8 to 3.1, and rodent chow was provided ad libitum. Following a 5-7 days acclimation, mice were randomized by body weight into 2 cohorts of 10 mice each. On study day 0, mice were anesthetized and two full thickness excision wounds (˜6 mm) were made on the dorsum (backs) of mice. One of the wounds was covered using a semi-occlusive polyurethane dressing (Tegaderm™). Dressings covered the wounds for 5 consecutive (5) days from the day of wounding (d 0). The doses of 4-hydroxy-4′-methoxytolan were based on those that promoted lesion healing in mice in previous herpes virus studies. Wound measurements were made on day 5, 7, 9 and 11. Digital images of wounds were taken of each mouse. Test agents were a viscous paste and wounds were surrounded with a saddle glued in place to eliminate cross contamination and wound closure due to contraction. Therefore, changes in wound area are due to re-epithelization. During the five days all wounds are covered with glycerin (control) or glycerin and test agent. At day 5, test agents were removed and changes in wound area were measured (as area/area %) in an effort to gauge the persistence of the compounds in the wound site. By day 5, glycerin produced 26.1% wound closure, whereas 4-hydroxy-4′-methoxytolan (2.5%) closed produced 92.8% wound closure and 5% 4-hydroxy-4′-methoxytolan produced 91.4% wound closure. Prior to statistical analysis a test for Normality was run and a Z-score computed to confirm a normally distributed area for each wound on day 1 for all mice across groups, r^2=0.989. Statistics are computed based One-Way ANOVA's comparing changes in wound area on day 5. All mice tolerated the treatments and all weekly clinical observations report bright, alert, responsive, and hydrated mice.
# [2] = tested on: skin (keratinocyte layer, dermis); experiment: H&E staining of excised skin samples; assay type: in vivo; details: 5% (w/v)
# Excerpt: Example 11: Excised skin samples treated with a control or with 5% (w/v) 4-hydroxy-4′-methoxytolan.
# [3] = 2.5% (w/v) topical in glycerin, day 0
# [4] = 2.5% (w/v) topical in glycerin, day 5
# [5] = 2.5% (w/v) topical in glycerin, day 7
# [6] = 2.5% (w/v) topical in glycerin, day 9
# [7] = 2.5% (w/v) topical in glycerin, day 11
# [8] = 5% (w/v) topical in glycerin, day 0
# [9] = 5% (w/v) topical in glycerin, day 5
# [10] = 5% (w/v) topical in glycerin, day 7
# [11] = 5% (w/v) topical in glycerin, day 9
# [12] = 5% (w/v) topical in glycerin, day 11
structure (smiles),measurement,setting,value
COc1ccc(C#Cc2ccc(O)cc2)cc1 [4-hydroxy-4′-methoxytolan],Average Area,[1]; [3],2.07 cm^2
same,Wound Area (%) Closed,[1]; [3],0%
same,Average Area,[1]; [4],0.15 cm^2
same,Wound Area (%) Closed,[1]; [4],92.8%
same,Average Area,[1]; [5],0.04 cm^2
same,Wound Area (%) Closed,[1]; [5],100%
same,Average Area,[1]; [6],0.00 cm^2
same,Wound Area (%) Closed,[1]; [6],100.0%
same,Average Area,[1]; [7],0.00 cm^2
same,Wound Area (%) Closed,[1]; [7],100.0%
same,Average Area,[1]; [8],1.98 cm^2
same,Wound Area (%) Closed,[1]; [8],0%
same,Average Area,[1]; [9],0.17 cm^2
same,Wound Area (%) Closed,[1]; [9],91.4%
same,Average Area,[1]; [10],0.08 cm^2
same,Wound Area (%) Closed,[1]; [10],100%
same,Average Area,[1]; [11],0.00 cm^2
same,Wound Area (%) Closed,[1]; [11],100.0%
same,Average Area,[1]; [12],0.00 cm^2
same,Wound Area (%) Closed,[1]; [12],100.0%
same,"Tolerability of treatment, weekly clinical observations","[1]; topical 2.5% and 5%, Balbc/J male mice",tolerated
same,Keratinocyte proliferation,[2]; H&E staining,extensive keratinocyte proliferation
same,Keratinocyte cell layers,[2]; control 1-2 cells thick,7-8 cells thick
